# Values quoted from earlier work as cited in PubChem BioAssay AID1259409 (Chemical Carcinogenesis Research Information System (CCRIS), 2018).
# Tested on: rodent chemically induced tumor inhibition, incidence and multiplicity
# Assay: CCRIS tumor inhibitor studies
# Settings: for tumour outcome (control, treated, inhibition, significance): Dose [Inhibitor]: 0, Promoter: NONE USED
structure (smiles),measurement,setting,value
CN1[C@@H]2CC[C@H]1CC(OC(=O)C(CO)c1ccccc1)C2 (stereo not given in full),"tumour outcome (control, treated, inhibition, significance)","Carcinogen: N-METHYL-N'-NITRO-N-NITROSOGUANIDINE, 70-25-7, 0.5 MG/KG IN OLIVE OIL SUSPENSION 1/D BEGINNING 1 WK POST LAST CARCINOGEN DOSE AND CONTINUING FOR DURATION OF STUDY (, Species: RAT, Strain/Sex: WISTAR/MALE, Target Tissue: Type of Lesion: GLANDULAR STOMACH: ADENOCARCINOMA, Dose [Carcinogen]: 50 UG/ML IN DRINKING WATER FOR 25 WK","15/18 (83%), 15/19 (79%), 5%, not calculated"
[K+],outcome,"Carcinogen: N-METHYL-N-NITROSOUREA [684-93-5], Dose [Inhibitor]: 0.05% IN DRINKING WATER, 2 WKS BEFORE CARCINOGEN AND FOR 26 WKS AFTER, Route [Inhibitor]: DRINKING WATER, Species: RAT, Strain/Sex: SPRAGUE-DAWLEY/FEMALE, Target Tissue: Type of Lesion: MAMMARY GLAND: CARCINOMA, Dose [Carcinogen]: 50 MG/KG BW ONCE AT 7 WKS OF AGE (IN SALINE SOLUTION)",8/11 (73%) vs 10/11 (94%) at 16 wks
NC(N)=NC(=O)c1nc(Cl)c(N)nc1N,"tumour outcome (control, treated, inhibition, significance)","Carcinogen: AZOXYMETHANE, 25843-45-2, 5 MG/KG BW 1/2 D FOR 35 WK (STUDY DURATION: 35 WK), Route [Inhibitor]: SUBCUTANEOUS, Species: RAT, Strain/Sex: WISTAR/MALE, Target Tissue: Type of Lesion: COLON: TUMOR, Dose [Carcinogen]: 7.4 MG/KG BW 1/WK FOR 10 WK","15/19 (79%), 13/17 (76%), 4%, not significant"
same,"tumour outcome (control, treated, inhibition, significance)","Carcinogen: AZOXYMETHANE, 25843-45-2, 7.5 MG/KG BW 1/2 D FOR 35 WK (STUDY DURATION: 35 WK), Route [Inhibitor]: SUBCUTANEOUS, Species: RAT, Strain/Sex: WISTAR/MALE, Target Tissue: Type of Lesion: COLON: TUMOR, Dose [Carcinogen]: 7.4 MG/KG BW 1/WK FOR 10 WK","15/19 (79%), 7/18 (39%), 51%, p<0.001"
same,"tumour outcome (control, treated, inhibition, significance)","Carcinogen: N-METHYL-N'-NITRO-N-NITROSOGUANIDINE, 70-25-7, 2.5 MG/KG BW 1/2 D BEGINNING 25 WK POST FIRST CARCINOGEN DOSE AND CONTINUING FOR DURATION OF STUDY (STUDY DURATION: 5, Route [Inhibitor]: SUBCUTANEOUS, Species: RAT, Strain/Sex: WISTAR/MALE, Target Tissue: Type of Lesion: STOMACH: ADENOCARCINOMA, Dose [Carcinogen]: 50 UG/ML IN DRINKING WATER FOR 25 WK","10/20 (50%), 5/17 (29%), 42%, not significant"
same,"tumour outcome (control, treated, inhibition, significance)","Carcinogen: N-METHYL-N'-NITRO-N-NITROSOGUANIDINE, 70-25-7, 5 MG/KG BW 1/2 D BEGINNING 25 WK POST FIRST CARCINOGEN DOSE AND CONTINUING FOR DURATION OF STUDY (STUDY DURATION: 52, Route [Inhibitor]: SUBCUTANEOUS, Species: RAT, Strain/Sex: WISTAR/MALE, Target Tissue: Type of Lesion: STOMACH: ADENOCARCINOMA, Dose [Carcinogen]: 50 UG/ML IN DRINKING WATER FOR 25 WK","10/20 (50%), 3/20 (15%), 70%, p<0.05"
[Cl][Zn][Cl],"tumour outcome (control, treated, inhibition, significance)","Carcinogen: CISPLATIN, 15663-27-1, 40 UMOL/KG/D 3 D/WK FOR 8 WK ADMINISTERED 24 HR PRIOR TO EACH CARCINOGEN DOSE (STUDY DURATION: 24 WK), Route [Inhibitor]: SUBCUTANEOUS, Species: MOUSE, Strain/Sex: STRAIN-A/FEMALE, Target Tissue: Type of Lesion: LUNG: TUMOR, Dose [Carcinogen]: 2 UMOL/KG/D 3 D/WK FOR 8 WK","100%, 69%, 31%, p<0.05"
same,"tumour outcome (control, treated, inhibition, significance)","Carcinogen: MELPHALAN, 148-82-3, 40 UMOL/KG/D 3 D/WK FOR 8 WK ADMINISTERED 24 HR PRIOR TO EACH CARCINOGEN DOSE (STUDY DURATION: 24 WK), Route [Inhibitor]: SUBCUTANEOUS, Species: MOUSE, Strain/Sex: STRAIN-A/FEMALE, Target Tissue: Type of Lesion: LUNG: TUMOR, Dose [Carcinogen]: 4 UMOL/KG/D 3 D/WK FOR 8 WK","100%, 100%, 0%, not significant"
C[C@]12CC[C@@H]3c4ccc(OC(=O)c5ccccc5)cc4CC[C@H]3[C@@H]1CC[C@@H]2O,"tumour outcome (control, treated, inhibition, significance)","Carcinogen: 1,2-DIMETHYLHYDRAZINE DIHYDROCHLORIDE, 306-37-6, 15 UG/KG IN PEANUT OIL ON DAYS 1 AND 3 OF STUDY THEN 1/WK FOR 30 WK (STUDY DURATION: 31 WK), Route [Inhibitor]: SUBCUTANEOUS, Species: RAT, Strain/Sex: SPRAGUE-DAWLEY/MALE, Target Tissue: Type of Lesion: COLON: ADENOCARCINOMA, Dose [Carcinogen]: 9 MG/KG 1/WK FOR 7 WK THEN 19.4 MG/KG 1/WK FOR 13 WK","14/14 (100%), 14/14 (100%), 0%, not significant"
same,"tumour outcome (control, treated, inhibition, significance)","Carcinogen: 1,2-DIMETHYLHYDRAZINE DIHYDROCHLORIDE, 306-37-6, 15 UG/KG IN PEANUT OIL ON DAYS 1 AND 3 OF STUDY THEN 1/WK FOR 30 WK (STUDY DURATION: 31 WK), Route [Inhibitor]: SUBCUTANEOUS, Species: RAT, Strain/Sex: SPRAGUE-DAWLEY/MALE, Target Tissue: Type of Lesion: SMALL INTESTINE: ADENOCARCINOMA, Dose [Carcinogen]: 9 MG/KG 1/WK FOR 7 WK THEN 19.4 MG/KG 1/WK FOR 13 WK","13/14 (93%), 11/14 (79%), 15%, not significant"
